Source: patent publication US8945632B2, “Methods and compositions for inhibiting the nuclear factor κB pathway” (Ben Gurion University of the Negev R&D Authority, priority 2010, dated 2015)

Key:
[1] = tested on: B16 melanoma cells in C57BL/6 mice; experiment: Experimental lung metastasis of B16 melanoma cells; assay type: in vivo; conditions: NUP 20 mg/kg or cisplatin 4 mg/kg, day 0 to day 14, lungs excised day 18
Method: C57BL/6 mice were treated with an intravenous injection of B16 melanoma cells (3*10^5 cells/[…]). […] Control animals received only vehicle. Lungs were excised on day 18. Metastatic nodules are black (FIG. 11).

L428 cells = experiment: XTT cell survival, NUP combined with chemotherapeutic drugs; assay type: cell-based, human; conditions: Bortezomib 0.9 ng/ml, same conditions, data not shown

| SMILES | Number of lung metastatic nodules, single agent [1] | Combined effect on cell survival with NUP (L428 cells) |
| --- | --- | --- |
| N.N.[Cl][Pt][Cl] [cisplatin] | reduced the number of lung metastatic nodules | – |
| CC(C)C[C@H](NC(=O)[C@H](Cc1ccccc1)NC(=O)c1cnccn1)B(O)O [Bortezomib] | – | additive to NUP and not synergistic |
